Measurements: ChEMBL document CHEMBL3813616, “Discovery of novel 7-azaindoles as PDK1 inhibitors” (Bioorg Med Chem Lett, 2016)

Legend:
Set-up in all cases: scale not given: the % may be the effect or the level left
[1] = biological target: T1, Ephrin type-B receptor 3 (Homo sapiens) (UniProt P54753); assay: Inhibition of human EPHB3 (561 to 998 residues) assessed as enzyme activity at 1 uM using 33P ATP by radioactive filter binding assay
T1 sequence (whole entry): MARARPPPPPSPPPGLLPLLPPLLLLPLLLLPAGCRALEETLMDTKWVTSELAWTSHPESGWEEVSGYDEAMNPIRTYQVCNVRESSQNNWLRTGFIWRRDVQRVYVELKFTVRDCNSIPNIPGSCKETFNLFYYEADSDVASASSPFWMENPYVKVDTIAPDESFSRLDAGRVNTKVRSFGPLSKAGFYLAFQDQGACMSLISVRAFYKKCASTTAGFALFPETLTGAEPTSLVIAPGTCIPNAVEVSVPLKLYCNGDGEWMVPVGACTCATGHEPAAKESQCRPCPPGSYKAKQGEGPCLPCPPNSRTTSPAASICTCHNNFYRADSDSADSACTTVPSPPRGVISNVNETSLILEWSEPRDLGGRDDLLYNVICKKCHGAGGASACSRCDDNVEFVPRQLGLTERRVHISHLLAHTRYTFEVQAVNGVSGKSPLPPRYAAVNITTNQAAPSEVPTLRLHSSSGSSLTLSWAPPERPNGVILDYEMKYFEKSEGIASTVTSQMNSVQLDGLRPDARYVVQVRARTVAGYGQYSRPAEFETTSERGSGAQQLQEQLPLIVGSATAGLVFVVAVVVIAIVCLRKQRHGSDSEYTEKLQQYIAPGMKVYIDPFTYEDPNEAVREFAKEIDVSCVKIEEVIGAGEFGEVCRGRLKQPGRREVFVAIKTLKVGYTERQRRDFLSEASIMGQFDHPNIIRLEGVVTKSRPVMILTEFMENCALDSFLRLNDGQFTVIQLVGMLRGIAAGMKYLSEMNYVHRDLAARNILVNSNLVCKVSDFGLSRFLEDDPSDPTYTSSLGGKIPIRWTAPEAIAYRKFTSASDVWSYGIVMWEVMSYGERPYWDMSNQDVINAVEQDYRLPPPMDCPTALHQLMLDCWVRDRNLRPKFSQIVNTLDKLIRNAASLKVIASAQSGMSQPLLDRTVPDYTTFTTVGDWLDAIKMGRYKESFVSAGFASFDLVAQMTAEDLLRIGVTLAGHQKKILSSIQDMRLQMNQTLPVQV

[2] = biological target: Ribosomal protein S6 kinase alpha-3 (Homo sapiens) (UniProt P51812); assay: Inhibition of human MAPKAPK1beta assessed as enzyme activity at 1 uM using 33P ATP by radioactive filter binding assay
[3] = biological target: RAC-beta serine/threonine-protein kinase (Homo sapiens) (UniProt P31751); assay: Inhibition of human PKBbeta (120 to 481 residues) assessed as enzyme activity at 1 uM using 33P ATP by radioactive filter binding assay
[4] = biological target: Serine/threonine-protein kinase 26 (Homo sapiens) (UniProt Q9P289); assay: Inhibition of human MST4 (1 to 416 residues) assessed as enzyme activity at 1 uM using 33P ATP by radioactive filter binding assay
[5] = biological target: T2, Dual specificity tyrosine-phosphorylation-regulated kinase 3 (Homo sapiens) (UniProt O43781); assay: Inhibition of human DYRK3 (1 to 588 residues) assessed as enzyme activity at 1 uM using 33P ATP by radioactive filter binding assay
T2 sequence (whole entry): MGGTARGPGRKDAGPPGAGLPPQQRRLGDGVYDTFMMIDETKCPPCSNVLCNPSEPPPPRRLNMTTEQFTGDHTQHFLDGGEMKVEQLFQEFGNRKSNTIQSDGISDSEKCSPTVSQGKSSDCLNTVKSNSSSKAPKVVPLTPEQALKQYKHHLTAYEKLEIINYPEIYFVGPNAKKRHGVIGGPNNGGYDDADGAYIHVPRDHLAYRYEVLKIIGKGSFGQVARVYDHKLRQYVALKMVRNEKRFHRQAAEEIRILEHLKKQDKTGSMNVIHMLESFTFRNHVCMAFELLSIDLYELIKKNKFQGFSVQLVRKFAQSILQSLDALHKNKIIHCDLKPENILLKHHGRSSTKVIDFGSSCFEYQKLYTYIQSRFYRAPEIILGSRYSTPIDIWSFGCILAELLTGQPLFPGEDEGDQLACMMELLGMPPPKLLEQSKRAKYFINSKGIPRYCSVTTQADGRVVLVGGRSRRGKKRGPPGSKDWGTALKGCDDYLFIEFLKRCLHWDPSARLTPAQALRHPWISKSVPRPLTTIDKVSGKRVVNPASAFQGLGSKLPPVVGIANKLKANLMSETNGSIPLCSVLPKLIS

[6] = biological target: Ribosomal protein S6 kinase alpha-1 (Homo sapiens) (UniProt Q15418); assay: Inhibition of human MAPKAPK1alpha (1 to 735 residues) assessed as enzyme activity at 1 uM using 33P ATP by radioactive filter binding assay
[7] = biological target: Tyrosine-protein kinase CSK (Homo sapiens) (UniProt P41240); assay: Inhibition of human CSK (1 to 450 residues) assessed as enzyme activity at 1 uM using 33P ATP by radioactive filter binding assay
[8] = biological target: Ribosomal protein S6 kinase alpha-5 (Homo sapiens) (UniProt O75582); assay: Inhibition of human MSK1 (2 to 802 residues) assessed as enzyme activity at 1 uM using 33P ATP by radioactive filter binding assay
[9] = biological target: Serine/threonine-protein kinase pim-2 (Homo sapiens) (UniProt Q9P1W9); assay: Inhibition of human PIM2 (2 to 334 residues) assessed as enzyme activity at 1 uM using 33P ATP by radioactive filter binding assay
Sequence of Serine/threonine-protein kinase pim-2 (Homo sapiens) (Q9P1W9 whole entry, looked up, the tested form may be a part): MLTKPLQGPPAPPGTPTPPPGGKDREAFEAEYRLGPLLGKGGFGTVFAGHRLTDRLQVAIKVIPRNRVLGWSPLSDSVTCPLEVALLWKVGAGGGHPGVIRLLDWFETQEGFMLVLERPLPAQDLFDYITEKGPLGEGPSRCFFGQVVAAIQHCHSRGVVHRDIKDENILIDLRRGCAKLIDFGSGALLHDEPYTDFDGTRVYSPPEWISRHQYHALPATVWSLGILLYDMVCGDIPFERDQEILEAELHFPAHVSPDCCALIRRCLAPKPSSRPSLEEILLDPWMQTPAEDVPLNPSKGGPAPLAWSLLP

Sequence of RAC-beta serine/threonine-protein kinase (Homo sapiens) (P31751 whole entry, the tested form may be a part): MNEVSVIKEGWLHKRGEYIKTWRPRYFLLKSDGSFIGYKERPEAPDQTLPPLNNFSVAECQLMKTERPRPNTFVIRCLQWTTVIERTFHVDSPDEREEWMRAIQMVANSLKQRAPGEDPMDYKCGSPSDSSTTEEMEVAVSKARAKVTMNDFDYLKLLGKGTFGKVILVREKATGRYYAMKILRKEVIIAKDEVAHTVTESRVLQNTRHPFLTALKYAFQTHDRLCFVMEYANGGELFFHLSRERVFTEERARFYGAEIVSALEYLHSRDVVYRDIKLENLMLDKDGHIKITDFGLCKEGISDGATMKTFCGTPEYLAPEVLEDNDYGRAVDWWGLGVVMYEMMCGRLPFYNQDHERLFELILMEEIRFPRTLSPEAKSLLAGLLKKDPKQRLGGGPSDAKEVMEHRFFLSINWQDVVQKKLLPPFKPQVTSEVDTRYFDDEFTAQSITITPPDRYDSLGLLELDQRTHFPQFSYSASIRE
Sequence of Ribosomal protein S6 kinase alpha-5 (Homo sapiens) (O75582 whole entry, looked up, the tested form may be a part): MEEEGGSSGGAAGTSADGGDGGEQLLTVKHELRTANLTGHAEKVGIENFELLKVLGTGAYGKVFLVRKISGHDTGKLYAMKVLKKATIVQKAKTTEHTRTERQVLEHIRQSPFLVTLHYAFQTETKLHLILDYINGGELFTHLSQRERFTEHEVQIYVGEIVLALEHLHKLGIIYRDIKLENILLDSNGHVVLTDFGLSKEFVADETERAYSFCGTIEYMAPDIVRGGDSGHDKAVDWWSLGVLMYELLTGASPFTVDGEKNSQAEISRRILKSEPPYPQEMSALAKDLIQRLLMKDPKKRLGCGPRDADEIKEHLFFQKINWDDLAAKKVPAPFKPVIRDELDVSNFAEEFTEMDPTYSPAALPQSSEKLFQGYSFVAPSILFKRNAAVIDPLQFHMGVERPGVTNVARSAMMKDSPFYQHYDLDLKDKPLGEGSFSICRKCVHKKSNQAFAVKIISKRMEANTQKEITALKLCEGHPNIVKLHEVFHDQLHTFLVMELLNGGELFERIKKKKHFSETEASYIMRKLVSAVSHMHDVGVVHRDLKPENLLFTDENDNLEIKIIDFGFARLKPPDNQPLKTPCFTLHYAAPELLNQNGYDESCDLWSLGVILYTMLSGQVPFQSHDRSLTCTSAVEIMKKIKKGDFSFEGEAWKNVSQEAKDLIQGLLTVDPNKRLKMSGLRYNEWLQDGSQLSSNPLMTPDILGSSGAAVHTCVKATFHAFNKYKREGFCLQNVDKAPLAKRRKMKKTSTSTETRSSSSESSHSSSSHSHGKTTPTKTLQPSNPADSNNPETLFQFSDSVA
Sequence of Ribosomal protein S6 kinase alpha-3 (Homo sapiens) (P51812 whole entry, the tested form may be a part): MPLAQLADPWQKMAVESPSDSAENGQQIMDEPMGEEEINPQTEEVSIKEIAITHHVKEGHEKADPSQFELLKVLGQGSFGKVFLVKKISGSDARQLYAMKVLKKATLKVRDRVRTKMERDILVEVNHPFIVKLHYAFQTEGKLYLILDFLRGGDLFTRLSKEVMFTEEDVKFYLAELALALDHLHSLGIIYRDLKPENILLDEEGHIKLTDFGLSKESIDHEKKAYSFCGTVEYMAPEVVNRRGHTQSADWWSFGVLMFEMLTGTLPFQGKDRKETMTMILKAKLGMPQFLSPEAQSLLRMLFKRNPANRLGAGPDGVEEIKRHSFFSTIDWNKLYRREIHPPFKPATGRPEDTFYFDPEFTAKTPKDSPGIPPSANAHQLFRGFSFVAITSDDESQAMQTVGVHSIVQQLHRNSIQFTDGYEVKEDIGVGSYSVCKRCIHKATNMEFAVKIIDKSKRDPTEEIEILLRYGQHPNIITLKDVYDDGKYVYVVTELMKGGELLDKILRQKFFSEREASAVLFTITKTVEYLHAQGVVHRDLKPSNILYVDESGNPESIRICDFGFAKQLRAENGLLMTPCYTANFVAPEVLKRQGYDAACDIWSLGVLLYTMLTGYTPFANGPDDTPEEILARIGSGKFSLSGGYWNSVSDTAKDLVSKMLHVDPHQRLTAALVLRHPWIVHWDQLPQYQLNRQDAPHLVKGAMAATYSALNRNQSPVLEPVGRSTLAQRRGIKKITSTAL
Sequence of Tyrosine-protein kinase CSK (Homo sapiens) (P41240 2-450 limits assumed): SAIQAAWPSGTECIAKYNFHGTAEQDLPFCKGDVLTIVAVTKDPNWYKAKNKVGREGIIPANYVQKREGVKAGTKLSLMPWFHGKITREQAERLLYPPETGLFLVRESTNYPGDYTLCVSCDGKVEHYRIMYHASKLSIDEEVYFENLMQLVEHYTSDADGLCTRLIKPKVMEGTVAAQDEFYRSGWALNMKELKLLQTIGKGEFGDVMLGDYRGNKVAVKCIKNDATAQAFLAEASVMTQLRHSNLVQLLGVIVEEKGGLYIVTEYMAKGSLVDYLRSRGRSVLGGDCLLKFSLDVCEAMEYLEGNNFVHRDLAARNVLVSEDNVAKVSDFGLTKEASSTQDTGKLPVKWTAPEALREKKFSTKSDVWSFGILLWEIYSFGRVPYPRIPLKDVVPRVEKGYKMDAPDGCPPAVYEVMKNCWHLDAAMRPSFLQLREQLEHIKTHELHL
Sequence of Ribosomal protein S6 kinase alpha-1 (Homo sapiens) (Q15418 whole entry, the tested form may be a part): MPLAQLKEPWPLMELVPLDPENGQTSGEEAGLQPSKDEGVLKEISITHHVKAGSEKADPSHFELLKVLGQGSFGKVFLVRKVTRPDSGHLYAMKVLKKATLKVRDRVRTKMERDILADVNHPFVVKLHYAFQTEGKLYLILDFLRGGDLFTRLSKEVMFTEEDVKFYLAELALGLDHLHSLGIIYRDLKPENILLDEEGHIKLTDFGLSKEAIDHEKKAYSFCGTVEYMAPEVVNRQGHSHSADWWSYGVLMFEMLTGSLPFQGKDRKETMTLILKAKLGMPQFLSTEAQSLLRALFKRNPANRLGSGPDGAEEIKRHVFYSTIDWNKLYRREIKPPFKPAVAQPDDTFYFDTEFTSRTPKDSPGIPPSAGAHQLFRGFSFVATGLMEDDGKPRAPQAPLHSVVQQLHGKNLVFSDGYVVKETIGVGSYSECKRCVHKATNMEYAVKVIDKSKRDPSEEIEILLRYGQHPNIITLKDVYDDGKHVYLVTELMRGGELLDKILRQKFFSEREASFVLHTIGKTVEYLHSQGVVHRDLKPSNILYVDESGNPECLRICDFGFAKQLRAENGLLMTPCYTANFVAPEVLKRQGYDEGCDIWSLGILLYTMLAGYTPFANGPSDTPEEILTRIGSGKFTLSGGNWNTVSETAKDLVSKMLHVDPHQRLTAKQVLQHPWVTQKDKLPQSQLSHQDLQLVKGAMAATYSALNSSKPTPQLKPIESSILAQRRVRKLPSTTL
Sequence of Serine/threonine-protein kinase 26 (Homo sapiens) (Q9P289 2-416 limits assumed): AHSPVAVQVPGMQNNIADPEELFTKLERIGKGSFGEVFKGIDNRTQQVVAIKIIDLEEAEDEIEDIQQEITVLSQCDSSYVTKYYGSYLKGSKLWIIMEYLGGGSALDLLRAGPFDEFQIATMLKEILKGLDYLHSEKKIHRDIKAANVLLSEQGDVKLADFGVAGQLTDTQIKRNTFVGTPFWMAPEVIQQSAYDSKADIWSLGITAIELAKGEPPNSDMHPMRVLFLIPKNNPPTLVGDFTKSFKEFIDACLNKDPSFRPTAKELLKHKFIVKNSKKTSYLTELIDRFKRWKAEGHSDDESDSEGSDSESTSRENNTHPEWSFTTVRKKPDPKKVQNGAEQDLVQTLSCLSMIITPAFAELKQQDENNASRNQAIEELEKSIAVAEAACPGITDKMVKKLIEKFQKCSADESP

SMILES	Activity [1] [%]	Activity [2] [%]	Activity [3] [%]	Activity [4] [%]	Activity [5] [%]	Activity [6] [%]	Activity [7] [%]	Activity [8] [%]	Activity [9] [%]
CCc1cc(-c2c[nH]c3ncc(-c4cnn(C5CCNCC5)c4)cc23)nc(N)n1	-19	-71	3	-49	-87	-86	6	-43	-87
CCCCc1cc(-c2c[nH]c3ncccc23)nc(N)n1		-17	-3	-4	-80	-56	-5	-46	-25
CCCCc1cc(-c2c[nH]c3ncc(-c4cnn(C5CCNCC5)c4)cc23)nc(N)n1	-25	-92	-21	-40	-84	-88	-24	-56	-98
Nc1nccc(-c2c[nH]c3ncccc23)n1 [MERIOLIN 1]	28	-46	-9	-9	-82	-82	0	-49	-39
